Tested on: tobacco budworm (Heliothis virescens [Fabricius])
Assay: surface-treated diet test against the tobacco budworm
Assay type: in vivo
Conditions: tobacco budworm second instar larvae, surface-treated diet, 0.25 millimoles of candidate insecticide on the surface of the diet, five-day exposure; for Percent Mortality: compared to total number of insects infested; for Percent Growth Inhibition: inhibition of insect weight relative to untreated controls
In short: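 Wheat germ artificial diet surface-treated with 40 µL of 50 mM DMSO stock diluted 1:7 in 1:1 water/acetone (0.25 millimolar on diet), or sub-multiples for rate tests. One second-instar larva per well, 25° C, 60% RH, 5 days; percent weight inhibition vs DMSO controls and percent mortality.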

| Structure (SMILES) | Percent Mortality [%] | Percent Growth Inhibition [%] |
| --- | --- | --- |
| CCCOc1ccc(CN2CCC(C(OC(=O)Nc3ccc(C(F)(F)F)cc3)c3cccc(C(F)(F)F)c3)CC2)cc1 (stereo not shown) [Compound 489] | 100 | 100 |
| CCCOc1ccc(CN2CCC(C(OC(=O)Nc3ccc(Cl)cc3)c3ccc(C(F)(F)F)cc3)CC2)cc1 (stereo not shown) [Compound 490] | 100 | 100 |
| CCCOc1ccc(CN2CCC(C(OC(=O)Nc3cc(F)cc(F)c3)c3ccc(C(F)(F)F)cc3)CC2)cc1 (stereo not shown) [Compound 491] | 100 | 100 |
| CC(C)OC(=O)c1ccc(CN2CCC(C(OC(=O)Nc3ccc(Cl)cc3)c3ccc(C(F)(F)F)cc3)CC2)cc1 (stereo not shown) [Compound 492] | 100 | 100 |
| CC(C)OC(=O)c1ccc(CN2CCC(C(OC(=O)Nc3cc(F)cc(F)c3)c3ccc(C(F)(F)F)cc3)CC2)cc1 (stereo not shown) [Compound 493] | 100 | 100 |
| CC(=O)Nc1ccc(CN2CCC(C(OC(=O)Nc3ccc(Cl)cc3)c3ccc(C(F)(F)F)cc3)CC2)cc1 (stereo not shown) [Compound 494] | 0 | 77 |
| CC(=O)Nc1ccc(CN2CCC(C(OC(=O)Nc3cc(F)cc(F)c3)c3ccc(C(F)(F)F)cc3)CC2)cc1 (stereo not shown) [Compound 495] | 0 | 98 |
| CC(C)C(=O)Nc1ccc(CN2CCC(C(OC(=O)Nc3cc(F)cc(F)c3)c3ccc(C(F)(F)F)cc3)CC2)cc1 (stereo not shown) [Compound 496] | 100 | 100 |
| CC(C)(C)C(=O)Nc1ccc(CN2CCC(C(OC(=O)Nc3cc(F)cc(F)c3)c3ccc(C(F)(F)F)cc3)CC2)cc1 (stereo not shown) [Compound 497] | 17 | 100 |
| COC(=O)Nc1ccc(CN2CCC(C(OC(=O)Nc3cc(F)cc(F)c3)c3ccc(C(F)(F)F)cc3)CC2)cc1 (stereo not shown) [Compound 498] | 100 | 100 |
| CCOC(=O)Nc1ccc(CN2CCC(C(OC(=O)Nc3cc(F)cc(F)c3)c3ccc(C(F)(F)F)cc3)CC2)cc1 (stereo not shown) [Compound 499] | 100 | 100 |
| CC(C)OC(=O)Nc1ccc(CN2CCC(C(OC(=O)Nc3cccc(F)c3)c3ccc(Cl)cc3)CC2)cc1 (stereo not shown) [Compound 501] | 100 | 100 |
| CC(C)OC(=O)Nc1ccc(CN2CCC(C(OC(=O)Nc3cc(F)cc(F)c3)c3ccc(Cl)cc3)CC2)cc1 (stereo not shown) [Compound 502] | 100 | 100 |
| CC(C)OC(=O)Nc1ccc(CN2CCC(C(OC(=O)Nc3ccc(Cl)cc3)c3ccc(F)cc3)CC2)cc1 (stereo not shown) [Compound 503] | 100 | 100 |
| CC(C)OC(=O)Nc1ccc(CN2CCC(C(OC(=O)Nc3cccc(F)c3)c3ccc(F)cc3)CC2)cc1 (stereo not shown) [Compound 504] | 100 | 100 |
| CC(C)OC(=O)Nc1ccc(CN2CCC(C(OC(=O)Nc3cc(F)cc(F)c3)c3ccc(F)cc3)CC2)cc1 (stereo not shown) [Compound 505] | 100 | 100 |
| CC(C)OC(=O)Nc1ccc(CN2CCC(C(OC(=O)Nc3ccc(Cl)cc3)c3ccc(Cl)cc3Cl)CC2)cc1 (stereo not shown) [Compound 506] | 100 | 100 |
| CC(C)OC(=O)Nc1ccc(CN2CCC(C(OC(=O)Nc3cc(F)cc(F)c3)c3ccc(Cl)cc3Cl)CC2)cc1 (stereo not shown) [Compound 507] | 100 | 100 |
| CC(C)OC(=O)Nc1ccc(CN2CCC(C(OC(=O)Nc3ccc(Cl)cc3)c3cc(Cl)cc(Cl)c3)CC2)cc1 (stereo not shown) [Compound 508] | 100 | 100 |
| CC(C)OC(=O)Nc1ccc(CN2CCC(C(OC(=O)Nc3cccc(F)c3)c3cc(Cl)cc(Cl)c3)CC2)cc1 (stereo not shown) [Compound 509] | 100 | 100 |
| CC(C)OC(=O)Nc1ccc(CN2CCC(C(OC(=O)Nc3cc(F)cc(F)c3)c3cc(Cl)cc(Cl)c3)CC2)cc1 (stereo not shown) [Compound 510] | 100 | 100 |
| CC(C)OC(=O)Nc1ccc(CN2CCC(C(OC(=O)Nc3cc(F)cc(F)c3)c3ccc(C(F)(F)F)cc3)CC2)cc1 (stereo not shown) [Compound 512] | 100 | 100 |
| CC(C)OC(=O)Nc1ccc(CN2CCC(C(OC(=O)Nc3ccc(Cl)cc3)c3ccc(OC(F)(F)F)cc3)CC2)cc1 (stereo not shown) [Compound 513] | 100 | 100 |
| CC(C)OC(=O)Nc1ccc(CN2CCC(C(OC(=O)Nc3cccc(F)c3)c3ccc(OC(F)(F)F)cc3)CC2)cc1 (stereo not shown) [Compound 514] | 100 | 100 |
| CC(C)OC(=O)Nc1ccc(CN2CCC(C(OC(=O)Nc3cc(F)cc(F)c3)c3ccc(OC(F)(F)F)cc3)CC2)cc1 (stereo not shown) [Compound 515] | 100 | 100 |

| Structure (SMILES) | Percent Mortality [%] | Percent Growth Inhibition [%] |
| --- | --- | --- |
| COC(=O)N(c1ccc(CN2CCC(C(OC(=O)Nc3cc(F)cc(F)c3)c3ccc(C(F)(F)F)cc3)CC2)cc1)c1ccccn1 (stereo not shown) [Compound 516] | 100 | 100 |
| CCNC(=O)Nc1ccc(CN2CCC(C(OC(=O)Nc3cc(F)cc(F)c3)c3ccc(C(F)(F)F)cc3)CC2)cc1 (stereo not shown) [Compound 517] | 0 | 86 |
| CCNC(=S)Nc1ccc(CN2CCC(C(OC(=O)Nc3cc(F)cc(F)c3)c3ccc(C(F)(F)F)cc3)CC2)cc1 (stereo not shown) [Compound 518] | 17 | 96 |
| CN(C)C(=O)Nc1ccc(CN2CCC(C(OC(=O)Nc3cc(F)cc(F)c3)c3ccc(C(F)(F)F)cc3)CC2)cc1 (stereo not shown) [Compound 519] | 17 | 93 |
| CNC(=O)Oc1ccc(CN2CCC(C(OC(=O)Nc3ccccc3)c3ccc(C(F)(F)F)cc3)CC2)cc1 (stereo not shown) [Compound 521] | 100 | 100 |
| CCON=Cc1ccc(CN2CCC(C(OC(=O)Nc3ccc(Cl)cc3)c3ccc(Cl)cc3)CC2)cc1 (stereo not shown) [Compound 523] | 100 | 100 |
| CCON=Cc1ccc(CN2CCC(C(OC(=O)Nc3cccc(F)c3)c3ccc(Cl)cc3)CC2)cc1 (stereo not shown) [Compound 524] | 100 | 100 |
| CCON=Cc1ccc(CN2CCC(C(OC(=O)Nc3cc(F)cc(F)c3)c3ccc(Cl)cc3)CC2)cc1 (stereo not shown) [Compound 525] | 100 | 100 |
| CCON=Cc1ccc(CN2CCC(C(OC(=O)Nc3ccc(Cl)cc3)c3ccc(F)cc3)CC2)cc1 (stereo not shown) [Compound 526] | 100 | 100 |
| CCON=Cc1ccc(CN2CCC(C(OC(=O)Nc3cccc(F)c3)c3ccc(F)cc3)CC2)cc1 (stereo not shown) [Compound 527] | 100 | 100 |
| CCON=Cc1ccc(CN2CCC(C(OC(=O)Nc3cc(F)cc(F)c3)c3ccc(F)cc3)CC2)cc1 (stereo not shown) [Compound 528] | 100 | 100 |
| CCON=Cc1ccc(CN2CCC(C(OC(=O)Nc3ccc(Cl)cc3)c3ccc(Cl)cc3Cl)CC2)cc1 (stereo not shown) [Compound 529] | 100 | 100 |
| CCON=Cc1ccc(CN2CCC(C(OC(=O)Nc3cccc(F)c3)c3ccc(Cl)cc3Cl)CC2)cc1 (stereo not shown) [Compound 530] | 100 | 100 |
| CCON=Cc1ccc(CN2CCC(C(OC(=O)Nc3cc(F)cc(F)c3)c3ccc(Cl)cc3Cl)CC2)cc1 (stereo not shown) [Compound 531] | 100 | 100 |
| CCON=Cc1ccc(CN2CCC(C(OC(=O)Nc3ccc(Cl)cc3)c3cc(Cl)cc(Cl)c3)CC2)cc1 (stereo not shown) [Compound 532] | 100 | 100 |
| CCON=Cc1ccc(CN2CCC(C(OC(=O)Nc3cccc(F)c3)c3cc(Cl)cc(Cl)c3)CC2)cc1 (stereo not shown) [Compound 533] | 100 | 100 |
| CCON=Cc1ccc(CN2CCC(C(OC(=O)Nc3cc(F)cc(F)c3)c3cc(Cl)cc(Cl)c3)CC2)cc1 (stereo not shown) [Compound 534] | 100 | 100 |
| CCON=Cc1ccc(CN2CCC(C(OC(=O)Nc3cccc(F)c3)c3ccc(C(F)(F)F)cc3)CC2)cc1 (stereo not shown) [Compound 535] | 100 | 100 |
| CCON=Cc1ccc(CN2CCC(C(OC(=O)N(C)c3ccccc3)c3ccc(C(F)(F)F)cc3)CC2)cc1 (stereo not shown) [Compound 536] | 100 | 100 |
| CCON=Cc1ccc(CN2CCC(C(OC(=O)Nc3ccc(Cl)cc3)c3ccc(OC(F)(F)F)cc3)CC2)cc1 (stereo not shown) [Compound 537] | 100 | 100 |
| CCON=Cc1ccc(CN2CCC(C(OC(=O)Nc3cc(F)cc(F)c3)c3ccc(OC(F)(F)F)cc3)CC2)cc1 (stereo not shown) [Compound 538] | 100 | 100 |
| C#CCON=Cc1ccc(CN2CCC(C(OC(=O)Nc3ccc(Cl)cc3)c3ccc(C(F)(F)F)cc3)CC2)cc1 (stereo not shown) [Compound 539] | 100 | 100 |
| C#CCON=Cc1ccc(CN2CCC(C(OC(=O)Nc3cc(F)cc(F)c3)c3ccc(C(F)(F)F)cc3)CC2)cc1 (stereo not shown) [Compound 540] | 100 | 100 |
| CCN(CC)S(=O)(=O)c1ccc(CN2CCC(C(OC(=O)Nc3cc(F)cc(F)c3)c3ccc(C(F)(F)F)cc3)CC2)cc1 (stereo not shown) [Compound 541] | 0 | 59 |
| O=C(Nc1cc(F)cc(F)c1)OC(c1ccc(C(F)(F)F)cc1)C1CCN(Cc2ccc(S(=O)(=O)NC3CCCC3)cc2)CC1 (stereo not shown) [Compound 542] | 0 | 43 |

From patent US7300946B2, “N-(substituted arylmethyl)-4-(disubstituted methyl) piperidines and pyridines” (Bayer CropScience AG, priority 2002, dated 2007)
